Source: article PMC12794274, “Therapeutic potential of Sheng-Xian-Tang in doxorubicin-induced chronic heart failure by regulation of phenylalanine metabolism disruption” (Chinese Medicine, 2026)
“And” between values parts separate entries of the source, which are not always exact repeats. Equal entries are not always repeated.

Assays:
DOX-induced CHF rats [1] = experiment: Oxidative stress in heart and liver tissue (SOD, MDA, ROS, PTGS2); assay type: in vivo, rat; conditions: experiment II
Protocol: Immunofluorescence staining was performed on tissue sections to detect phenylalanine hydroxylase (PAH), prostaglandin-endoperoxide synthase 2 (PTGS2), and reactive oxygen species (ROS). Primary antibodies against PAH and PTGS2 were used, while ROS was detected using the DCFH-DA probe. Nuclei were counterstained with DAPI. Images were captured using a fluorescence microscope. Serum biochemical parameters including brain natriuretic peptide (BNP), creatine kinase (CK), lactate dehydrogenase (LDH), alanine aminotransferase (ALT), and aspartate aminotransferase (AST) were measured using commercial ELISA kits (Nanjing Jiancheng Bioengineering Institute, Nanjing, China) according to the manufacturer's instructions. Superoxide dismutase (SOD), and malondialdehyde (MDA) levels in liver and heart tissues were measured using assay kits from […] Biotechnology (Changsha, China). Phenylalanine and tyrosine concentrations in the cell were determined using an ELISA kit from Abmart (Shanghai, China).

[2] = tested on: cardiac tissues of DOX-induced CHF rats; experiment: Heart histopathology (H&E, Masson) and TUNEL apoptosis detection; assay type: in vivo, rat; conditions: experiment II, co-treatment vs DOX group
Protocol: Cardiac tissues were fixed in 4% paraformaldehyde, embedded in paraffin, and sectioned at 4–5 μm thickness. Hematoxylin and eosin (H&E) staining was performed to assess histopathological changes, while Masson’s trichrome staining was used to evaluate cardiac fibrosis. Apoptosis in cardiac tissues was detected using a TUNEL assay kit (C1088, Beyotime, Shanghai, China).

heart tissues = experiment: Transmission electron microscopy of heart tissue; assay type: in vivo, rat; conditions: experiment II; DOX alone, co-treatments vs DOX
Protocol: Freshly excised heart tissues were immediately fixed in 2.5% glutaraldehyde at 4 °C overnight. After washing with 0.1 M cacodylate trihydrate buffer, samples were post-fixed with 1% osmium tetroxide for 1 h. Tissues were then dehydrated through a graded ethanol series, incubated in acetone, and embedded in epoxy resin. Ultrathin sections were mounted on copper grids and imaged using a Hitachi HT7800 transmission electron microscope (Tokyo, Japan).

phenylalanine metabolism = experiment: Phenylalanine and tyrosine levels in rat serum, liver and heart tissues (LC/MS); assay type: in vivo
Protocol: Phenylalanine and tyrosine in the different rat bio-samples were analyzed by LC/MS using an Agilent 1290 Ultra high-performance liquid chromatography (UHPLC) and an Agilent 6460 triple-quadrupole tandem mass spectrometer (QQQ-MS) (Agilent Inc, USA). Data were acquired by using an Agilent Zorbax SB-C18 column (3.0 × 150 mm, 5 μm) as described previously.

H9C2 cells = experiment: Effect of phenylalanine on doxorubicin-induced H9C2 cells; assay type: cell-based; conditions: DOX 1 µM + Phe 18.5 µM, 24 h
Protocol: H9C2 cells were seeded in 96-well plates at a density of 5 × 10⁴ cells per well (in 100 µL medium) and allowed to adhere for 12 h. The cells were then treated for 24 h with either DOX (1 µM) alone or DOX (1 µM) in combination with Phe (18.5 µM; a concentration derived from the dosing conversion ratio used in prior rat experiments). An untreated group served as the control. Cell viability was determined by measuring the optical density at 450 nm using a microplate reader. The levels of CK, LDH, SOD, and MDA were quantified using commercial assay kits.

[3] = tested on: DOX-induced chronic heart failure (CHF) rat model; experiment: Echocardiography (LVEF%, LVFS%) in DOX-induced CHF rats; assay type: in vivo; conditions: experiment II, DOX + Phe 280 mg/kg, BH4 14 mg/kg or SXT 16 g/kg vs DOX group
Protocol: Experiment I, 48 rats were randomly divided into six groups: (1) the CON group; (2) the DOX group; (3) the DOX + enalapril (ENP, positive control, 1.8 mg/kg) group; (4) the DOX + SXT at low dose group (4 g/kg); (5) the DOX + SXT at middle dose group (8 g/kg); and […] the DOX + SXT at high dose group (16 g/kg). Except those rats in the CON group, the remaining rats received DOX at a 2.5 mg/kg per injection to a cumulative dose of 15 mg/kg. The dose of SXT for the low-dose group was set at 4 g/kg, based on the minimum human clinical daily dose (48.5 g, Table S2) converted to an equivalent rat dose using body surface area normalization (48.5 g/70 kg × 6.3 ≈ 4.4 g/kg, rounded to 4 g/kg). To evaluate a clear dose–response relationship, the medium and high doses were established at 8 g/kg and 16 g/kg, respectively, corresponding to 2 fold and 4 fold the low dose. This gradient dosing strategy is consistent with the Technical Guidelines for Pharmacodynamic Studies of Traditional Chinese Medicine and the Technical Guidelines for General Pharmacology Studies of Traditional Chinese Medicine and Natural Drugs, and is further supported by our previous study on the effective dose range of SXT in a rat model of doxorubicin-induced chronic heart failure. Heart function was monitored by echocardiography analysis at day 39, and the CHF model was considered to be successfully established when the left ventricular ejection fraction (LVEF%) values were reduced to 50%. Urinary samples were collected at five time points (0, 10, 20, 30, and 39 d), while fecal samples were collected before the rats were euthanized. Subsequently, the rats were anesthetized, and blood samples and heart and liver tissues were collected. All bio-samples were stored at − 80 °C until analysis.
Experiment II was conducted to specifically confirm the exacerbated cardiac abnormality of phenylalanine in the DOX-induced CHF rats. […] Heart function was detected as in the experiment I.
Echocardiographic (ECG) measurements were performed using M-mode tracings and continuous Doppler with a Vevo 2100 system (Visual Sonics, Toronto, ON, Canada). Rats were anesthetized with isoflurane prior to imaging. Cardiac function indices including left ventricular ejection fraction (LVEF%) and left ventricular fractional shortening (LVFS%) were measured and recorded.

[4] = tested on: phenylalanine hydroxylase (PAH); experiment: PAH expression in liver and heart (western blotting, immunofluorescence); assay type: in vivo, rat; conditions: experiment II; DOX vs CON, co-treatments vs DOX
Protocol: Immunofluorescence staining was performed on tissue sections to detect phenylalanine hydroxylase (PAH), prostaglandin-endoperoxide synthase 2 (PTGS2), and reactive oxygen species (ROS). Primary antibodies against PAH and PTGS2 were used, while ROS was detected using the DCFH-DA probe. Nuclei were counterstained with DAPI. Images were captured using a fluorescence microscope.
Protein was extracted from liver or heart tissue samples (30 mg) using lysis buffer. Total protein concentration was determined using a BCA protein assay kit (Thermo Fisher Scientific, USA). Equal amounts of protein from each sample were separated on 10–12% SDS-PAGE gels and transferred to PVDF membranes. Membranes were blocked with quick blocking buffer for 30 min, then incubated with anti-PAH primary antibody (1:1000 dilution) overnight at 4 °C. After washing, membranes were incubated with a secondary antibody for 1 h at 37 °C. Protein bands were visualized using an Odyssey infrared imaging system (JS-1070, Shanghai Peiqing Science & Technology Co., Ltd, China). Band intensities were quantified using ImageJ software.

DOX-induced CHF rats [5] = experiment: Serum biochemical parameters (BNP, CK, LDH, ALT, AST) by ELISA kits; assay type: in vivo, rat; conditions: experiment II, co-treatment vs DOX group
Protocol: Serum biochemical parameters including brain natriuretic peptide (BNP), creatine kinase (CK), lactate dehydrogenase (LDH), alanine aminotransferase (ALT), and aspartate aminotransferase (AST) were measured using commercial ELISA kits (Nanjing Jiancheng Bioengineering Institute, Nanjing, China) according to the manufacturer's instructions. Superoxide dismutase (SOD), and malondialdehyde (MDA) levels in liver and heart tissues were measured using assay kits from […] Biotechnology (Changsha, China). Phenylalanine and tyrosine concentrations in the cell were determined using an ELISA kit from Abmart (Shanghai, China).

AML12 cells [6] = assay type: cell-based, mouse; conditions: AML12 cells, dose-dependent
Protocol: (§1) Mouse hepatocellular cell lines (AML12), purchased from the Shanghai Cell Bank of Chinese Academy of Sciences (Shanghai, China), were cultured in Dulbecco’s Modified Eagle Medium (DMEM) supplemented with 10% fetal bovine serum (FBS) and 2 mM L-glutamine and 1% pyruvate and maintained at 37 °C in a […], 5% CO2 incubator. Cells were seeded at a density of 5 × 10^5 cells/well in 6-well plates. […] Cells’ survival rate was detected by Cell Counting Kit-8 (CCK8) Reagents (Thermo Scientific, Singapore).

AML12 cells [7] = experiment: AML12 cell viability (CCK8); assay type: cell-based
Protocol: as §1

[8] = target: T1, PAH protein in AML12 cells (Mus musculus, UniProt P16331); experiment: Cellular Thermal Shift Assay (CETSA); assay type: cell-based; conditions: neomangiferin 10 μM, 24 h, 37-72 °C, vs control group
T1 construct: endogenous in cells; host or cells: AML12 mouse hepatocytes
T1 sequence (P16331 1-453): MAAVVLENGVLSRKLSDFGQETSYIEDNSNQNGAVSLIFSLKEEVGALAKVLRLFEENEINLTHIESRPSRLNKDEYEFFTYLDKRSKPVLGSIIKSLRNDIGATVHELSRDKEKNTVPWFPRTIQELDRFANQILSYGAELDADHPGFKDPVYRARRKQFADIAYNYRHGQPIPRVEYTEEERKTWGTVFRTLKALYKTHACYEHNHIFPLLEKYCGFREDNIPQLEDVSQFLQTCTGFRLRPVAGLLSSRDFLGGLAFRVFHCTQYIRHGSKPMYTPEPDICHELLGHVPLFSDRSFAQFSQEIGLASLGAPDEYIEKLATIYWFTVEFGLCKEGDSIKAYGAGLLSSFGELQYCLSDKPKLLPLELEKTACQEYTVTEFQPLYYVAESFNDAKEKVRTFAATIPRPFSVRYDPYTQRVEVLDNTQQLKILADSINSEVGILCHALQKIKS
Protocol: AML12 cells (5 × 10^5 cells/well) in 6-well plates were divided into two groups, with 8 wells in each group. […] After 24 h, 8 samples of cells from each of the two groups were incubated at specific temperatures (37, 42, 47, 52, 57, 62, 67, and 72 °C) for 3 min and each sample was performed for western blotting analysis.

[9] = tested on: PAH activity in AML12 cells; assay type: cell-based
Protocol: Serum biochemical parameters including brain natriuretic peptide (BNP), creatine kinase (CK), lactate dehydrogenase (LDH), alanine aminotransferase (ALT), and aspartate aminotransferase (AST) were measured using commercial ELISA kits (Nanjing Jiancheng Bioengineering Institute, Nanjing, China) according to the manufacturer’s instructions. Superoxide dismutase (SOD), and malondialdehyde (MDA) levels in liver and heart tissues were measured using assay kits from Aifang Biotechnology (Changsha, China). Phenylalanine and tyrosine concentrations in the cell were determined using an ELISA kit from Abmart (Shanghai, China).
as §1

[10] = target: Phenylalanine hydroxylase (PAH) protein (Homo sapiens, UniProt P00439); experiment: Surface Plasmon Resonance (SPR) analysis, Biacore T200; assay type: binding; conditions: PAH immobilized on CM5 chip, read-out: dissociation constant (Kd)
Protocol: SPR assays were conducted using a Biacore T200 system (GE Healthcare Life Sciences, USA). Phenylalanine hydroxylase (PAH) protein was immobilized on CM5 sensor chips using an amine-coupling kit (BR100050, GE Healthcare) following standard procedures. […] Samples were injected over reference and PAH-immobilized flow cells at a flow rate of 30 μL/min, with 120 s contact time and 120 s dissociation time. Kinetic parameters were calculated using Biacore T200 evaluation software.

[11] = DOX + phenylalanine vs DOX group

Chain of Phenylalanine hydroxylase (PAH) protein (P00439 whole entry): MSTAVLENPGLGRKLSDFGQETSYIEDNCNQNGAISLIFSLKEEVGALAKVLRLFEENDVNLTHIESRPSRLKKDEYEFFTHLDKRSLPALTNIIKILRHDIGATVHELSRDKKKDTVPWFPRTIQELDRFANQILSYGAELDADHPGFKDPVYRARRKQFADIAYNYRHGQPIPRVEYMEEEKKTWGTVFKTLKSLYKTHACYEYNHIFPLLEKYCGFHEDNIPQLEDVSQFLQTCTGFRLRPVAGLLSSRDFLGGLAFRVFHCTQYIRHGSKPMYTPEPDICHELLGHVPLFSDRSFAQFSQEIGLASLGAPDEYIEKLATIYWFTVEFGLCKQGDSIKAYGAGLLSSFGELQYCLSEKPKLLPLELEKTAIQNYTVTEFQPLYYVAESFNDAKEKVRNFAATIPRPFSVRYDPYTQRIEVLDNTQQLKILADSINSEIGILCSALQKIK

Row | thermal stability of PAH protein (CETSA) [8] | Kd [10] | SMILES | hepatic and cardiac MDA (DOX-induced CHF rats [1]; [11]) | hepatic and cardiac SOD activity (DOX-induced CHF rats [1]; [11]) | ROS production and PTGS2 expression in the heart (DOX-induced CHF rats [1]; co-treatment with DOX) | DOX-induced cardiac injury and collagen accumulation (H&E and Masson) [2] | mitochondrial ultrastructure of heart (electron microscopy) (heart tissues) | serum phenylalanine concentration (phenylalanine metabolism; experiment II, DOX + phenylalanine 280 mg/kg, BH4 14 mg/kg or SXT 16 g/kg) [µM] | increase in serum phenylalanine levels (phenylalanine metabolism; oral phenylalanine, compared to the DOX group) [%] | DOX-induced cardiotoxicity in H9C2 cells (cell viability, SOD, CK, LDH, MDA) (H9C2 cells) | LVEF and LVFS / DOX-induced cardiac dysfunction [3] | PAH expression in heart tissue [4] | PAH expression in liver tissue [4] | DOX-induced increases in serum levels of BNP, CK, LDH, ALT and AST (DOX-induced CHF rats [5]) | DOX-induced oxidative stress (SOD, MDA) (AML12 cells [6]) | non-cytoxic concentration (AML12 cells [7]) [µM] | DOX-induced AML12 cell viability (AML12 cells [7]; DOX 1 µM, 24 h, three concentrations of compound) | PAH activity (enzyme activity assay) [9] | phenylalanine levels in AML12 cells increased by DOX ([9]; BH4 10 μM, timosaponin B-II, neomangiferin, anemarrhenasaponin I 5, 10, 20 μM, timosaponin AIII 0.1, 0.2, 0.5 μM)
1 | – | – | N[C@@H](Cc1ccccc1)C(=O)O [phenylalanine] | marked MDA elevation | pronounced suppression | upregulating | exacerbated | more pronounced | 100.715 | 16.92 | exacerbated | lower | further exacerbated | further exacerbated | largely promoted | – | – | – | – | –
2 | better thermal stability | 5.75 µM and < 10 µM | O=c1c2cc(O[C@@H]3O[C@H](CO)[C@@H](O)[C@H](O)[C@H]3O)c(O)cc2oc2cc(O)c([C@@H]3O[C@H](CO)[C@@H](O)[C@H](O)[C@H]3O)c(O)c12 [Neomangiferin] | – | – | – | – | – | – | – | – | – | – | – | – | alleviated | 5 to 20 | alleviated | significantly increase | significantly reduce
